Laboratory results reported in ChEMBL document CHEMBL4371027, “Design, synthesis and anticonvulsant evaluation of fluorinated benzyl amino enaminones” (Bioorg Med Chem, 2019).
Calls of active or inactive are those of the source. No cut-off for these calls is given here.

Experiments:
Mus musculus [1] = assay: Anticonvulsant activity in F-1 albino mouse assessed as protection against 32 mA current-induced seizure at 30 mg/kg, ip pretreated at 0.5 hrs before current challenge by 6 Hz psychomotor seizure test; assay type: functional, organism-based
Mus musculus [2] = assay: Anticonvulsant activity in F-1 albino mouse assessed as protection against 32 mA current-induced seizure at 30 mg/kg, ip pretreated at 2 hrs before current challenge by 6 Hz psychomotor seizure test; assay type: functional, organism-based
Mus musculus [3] = assay: Anticonvulsant activity in F-1 albino mouse assessed as protection against 32 mA current-induced seizure at 30 mg/kg, ip pretreated at 0.5 hrs by maximal electroshock seizure test; assay type: functional, organism-based
Mus musculus [4] = assay: Anticonvulsant activity in F-1 albino mouse assessed as protection against 32 mA current-induced seizure at 100 mg/kg, ip pretreated at 0.5 hrs by maximal electroshock seizure test; assay type: functional, organism-based
Mus musculus [5] = assay: Anticonvulsant activity in F-1 albino mouse assessed as protection against 32 mA current-induced seizure at 300 mg/kg, ip pretreated at 0.5 hrs by maximal electroshock seizure test; assay type: functional, organism-based
Mus musculus [6] = assay: Anticonvulsant activity in F-1 albino mouse assessed as protection against 32 mA current-induced seizure at 30 mg/kg, ip pretreated at 2 hrs by maximal electroshock seizure test; assay type: functional, organism-based
Mus musculus [7] = assay: Anticonvulsant activity in F-1 albino mouse assessed as protection against 32 mA current-induced seizure at 100 mg/kg, ip pretreated at 2 hrs by maximal electroshock seizure test; assay type: functional, organism-based
Mus musculus [8] = assay: Anticonvulsant activity in F-1 albino mouse assessed as protection against 32 mA current-induced seizure at 300 mg/kg, ip pretreated at 2 hrs by maximal electroshock seizure test; assay type: functional, organism-based
[9] = Neurotoxicity in F-1 albino mouse at 30 mg/kg, ip after 0.5 hrs by rotarod test; assay type: toxicity, organism-based; details: in vivo
[10] = Neurotoxicity in F-1 albino mouse at 100 mg/kg, ip after 0.5 hrs by rotarod test; assay type: toxicity, organism-based; details: in vivo
[11] = Neurotoxicity in F-1 albino mouse at 300 mg/kg, ip after 0.5 hrs by rotarod test; assay type: toxicity, organism-based; details: in vivo
[12] = Neurotoxicity in F-1 albino mouse at 30 mg/kg, ip after 2 hrs by rotarod test; assay type: toxicity, organism-based; details: in vivo
[13] = Neurotoxicity in F-1 albino mouse at 100 mg/kg, ip after 2 hrs by rotarod test; assay type: toxicity, organism-based; details: in vivo
[14] = Neurotoxicity in F-1 albino mouse at 300 mg/kg, ip after 2 hrs by rotarod test; assay type: toxicity, organism-based; details: in vivo
Mus musculus [15] = assay: Anticonvulsant activity in F-1 albino mouse assessed as protection against 32 mA current-induced seizure at 300 mg/kg, ip pretreated at 0.5 hrs before current challenge by 6 Hz psychomotor seizure test; assay type: functional, organism-based
Mus musculus [16] = assay: Anticonvulsant activity in F-1 albino mouse assessed as protection against 32 mA current-induced seizure at 100 mg/kg, ip pretreated at 2 hrs before current challenge by 6 Hz psychomotor seizure test; assay type: functional, organism-based
Mus musculus [17] = assay: Anticonvulsant activity in F-1 albino mouse assessed as protection against 32 mA current-induced seizure at 300 mg/kg, ip pretreated at 2 hrs before current challenge by 6 Hz psychomotor seizure test; assay type: functional, organism-based
Mus musculus [18] = assay: Anticonvulsant activity in ip dosed F-1 albino mouse assessed as protection against 32 mA current-induced seizure pretreated at 0.5 to 2 hrs by maximal electroshock seizure test; assay type: functional; details: F-1, ip
Mus musculus [19] = assay: Anticonvulsant activity in F-1 albino mouse assessed as protection against 32 mA current-induced seizure at 100 mg/kg, ip pretreated at 0.5 hrs before current challenge by 6 Hz psychomotor seizure test; assay type: functional, organism-based

Structure (SMILES) | Activity (Mus musculus [1]) | Activity (Mus musculus [2]) | Activity (Mus musculus [3]) | Activity (Mus musculus [4]) | Activity (Mus musculus [5]) | Activity (Mus musculus [6]) | Activity (Mus musculus [7]) | Activity (Mus musculus [8]) | Activity [9] | Activity [10] | Activity [11] | Activity [12] | Activity [13] | Activity [14] | Activity (Mus musculus [15]) | Activity (Mus musculus [16]) | Activity (Mus musculus [17]) | ED50 (Mus musculus [18]) [mg/kg] | Activity (Mus musculus [19])
COc1ccc(CNC2=CC(=O)CC(C(F)(F)F)C2)cc1 (configuration not stated) | inactive | inactive | inactive | inactive | inactive | inactive | inactive | inactive | Non-Toxic | Non-Toxic | Non-Toxic | Non-Toxic | Non-Toxic | Non-Toxic | – | – | – | – | –
O=C1C=C(NCc2cc(F)ccc2F)CC(C(F)(F)F)C1 (configuration not stated) | inactive | inactive | inactive | inactive | inactive | inactive | inactive | inactive | Non-Toxic | Non-Toxic | Non-Toxic | Non-Toxic | Non-Toxic | Non-Toxic | Active | inactive | Active | – | –
NC(=O)N1c2ccccc2C=Cc2ccccc21 [CARBAMAZEPINE] | – | – | – | – | – | – | – | – | – | – | – | – | – | – | – | – | – | 28.2 | –
O=C1C=C(NCc2cccc(OC(F)(F)F)c2)CC(C(F)(F)F)C1 (configuration not stated) | – | inactive | – | inactive | Active | inactive | inactive | Active | Non-Toxic | Non-Toxic | Non-Toxic | Non-Toxic | Non-Toxic | Non-Toxic | – | inactive | – | – | inactive
O=C1C=C(NCc2ccc(Br)cc2)CC(C(F)(F)F)C1 (configuration not stated) | – | inactive | inactive | inactive | – | inactive | inactive | inactive | Non-Toxic | Non-Toxic | Non-Toxic | Non-Toxic | Non-Toxic | Non-Toxic | – | inactive | – | – | –
O=C1C=C(NCc2cc(C(F)(F)F)cc(C(F)(F)F)c2)CC(C(F)(F)F)C1 (configuration not stated) | – | – | inactive | inactive | inactive | inactive | inactive | inactive | Non-Toxic | Non-Toxic | Non-Toxic | Non-Toxic | Non-Toxic | Non-Toxic | – | inactive | – | – | –
O=C1C=C(Nc2ccc(Cl)cc2)CC(C(F)(F)F)C1 (configuration not stated) | – | – | – | – | – | – | – | – | Non-Toxic | – | – | Non-Toxic | – | – | – | – | – | 62.4 | –
O=C1C=C(NCc2ccc(F)c(C(F)(F)F)c2)CC(C(F)(F)F)C1 (configuration not stated) | – | – | inactive | inactive | inactive | inactive | inactive | inactive | Non-Toxic | Non-Toxic | Non-Toxic | Non-Toxic | Non-Toxic | Non-Toxic | Active | – | Active | 23.5 | –
O=C1C=C(NCc2cccc(C(F)(F)F)c2)CC(C(F)(F)F)C1 (configuration not stated) | inactive | inactive | inactive | inactive | – | inactive | inactive | inactive | Non-Toxic | Non-Toxic | Non-Toxic | Non-Toxic | Non-Toxic | Non-Toxic | – | – | – | – | –
O=C1C=C(Nc2ccc(Br)cc2C(=O)O)CC(C(F)(F)F)C1 (configuration not stated) | inactive | inactive | inactive | inactive | – | inactive | inactive | inactive | Non-Toxic | Non-Toxic | Non-Toxic | Non-Toxic | Non-Toxic | Non-Toxic | – | inactive | – | – | –
